Active and inactive are the calls of the source. No cut-off for these calls is given here.
Experiments:
Assay type in all cases: cell-based
[1] = target: Voltage-dependent T-type calcium channel subunit alpha-1H (Homo sapiens) (UniProt O95180); test: Inhibition of alpha-1H T-type calcium channel Cav3.2 expressed in Xenopus unfertilized oocytes at 100 uM by two-electrode voltage clamp method; settings: Oocyte
[2] = target: T1, Voltage-dependent T-type calcium channel subunit alpha-1G (Homo sapiens, UniProt O43497); test: Inhibition of alpha-1G T-type calcium channel expressed in HEK293 cells by electrophysiological method
[3] = Inhibition of alpha-1B N-type calcium channel expressed in HEK293 cells by electrophysiological method
[4] = target: T1, Voltage-dependent T-type calcium channel subunit alpha-1G; test: Inhibition of alpha-1G T-type calcium channel expressed in HEK293 cells at 10 uM by electrophysiological method

Sequence of Voltage-dependent T-type calcium channel subunit alpha-1H (Homo sapiens) (O95180 whole entry): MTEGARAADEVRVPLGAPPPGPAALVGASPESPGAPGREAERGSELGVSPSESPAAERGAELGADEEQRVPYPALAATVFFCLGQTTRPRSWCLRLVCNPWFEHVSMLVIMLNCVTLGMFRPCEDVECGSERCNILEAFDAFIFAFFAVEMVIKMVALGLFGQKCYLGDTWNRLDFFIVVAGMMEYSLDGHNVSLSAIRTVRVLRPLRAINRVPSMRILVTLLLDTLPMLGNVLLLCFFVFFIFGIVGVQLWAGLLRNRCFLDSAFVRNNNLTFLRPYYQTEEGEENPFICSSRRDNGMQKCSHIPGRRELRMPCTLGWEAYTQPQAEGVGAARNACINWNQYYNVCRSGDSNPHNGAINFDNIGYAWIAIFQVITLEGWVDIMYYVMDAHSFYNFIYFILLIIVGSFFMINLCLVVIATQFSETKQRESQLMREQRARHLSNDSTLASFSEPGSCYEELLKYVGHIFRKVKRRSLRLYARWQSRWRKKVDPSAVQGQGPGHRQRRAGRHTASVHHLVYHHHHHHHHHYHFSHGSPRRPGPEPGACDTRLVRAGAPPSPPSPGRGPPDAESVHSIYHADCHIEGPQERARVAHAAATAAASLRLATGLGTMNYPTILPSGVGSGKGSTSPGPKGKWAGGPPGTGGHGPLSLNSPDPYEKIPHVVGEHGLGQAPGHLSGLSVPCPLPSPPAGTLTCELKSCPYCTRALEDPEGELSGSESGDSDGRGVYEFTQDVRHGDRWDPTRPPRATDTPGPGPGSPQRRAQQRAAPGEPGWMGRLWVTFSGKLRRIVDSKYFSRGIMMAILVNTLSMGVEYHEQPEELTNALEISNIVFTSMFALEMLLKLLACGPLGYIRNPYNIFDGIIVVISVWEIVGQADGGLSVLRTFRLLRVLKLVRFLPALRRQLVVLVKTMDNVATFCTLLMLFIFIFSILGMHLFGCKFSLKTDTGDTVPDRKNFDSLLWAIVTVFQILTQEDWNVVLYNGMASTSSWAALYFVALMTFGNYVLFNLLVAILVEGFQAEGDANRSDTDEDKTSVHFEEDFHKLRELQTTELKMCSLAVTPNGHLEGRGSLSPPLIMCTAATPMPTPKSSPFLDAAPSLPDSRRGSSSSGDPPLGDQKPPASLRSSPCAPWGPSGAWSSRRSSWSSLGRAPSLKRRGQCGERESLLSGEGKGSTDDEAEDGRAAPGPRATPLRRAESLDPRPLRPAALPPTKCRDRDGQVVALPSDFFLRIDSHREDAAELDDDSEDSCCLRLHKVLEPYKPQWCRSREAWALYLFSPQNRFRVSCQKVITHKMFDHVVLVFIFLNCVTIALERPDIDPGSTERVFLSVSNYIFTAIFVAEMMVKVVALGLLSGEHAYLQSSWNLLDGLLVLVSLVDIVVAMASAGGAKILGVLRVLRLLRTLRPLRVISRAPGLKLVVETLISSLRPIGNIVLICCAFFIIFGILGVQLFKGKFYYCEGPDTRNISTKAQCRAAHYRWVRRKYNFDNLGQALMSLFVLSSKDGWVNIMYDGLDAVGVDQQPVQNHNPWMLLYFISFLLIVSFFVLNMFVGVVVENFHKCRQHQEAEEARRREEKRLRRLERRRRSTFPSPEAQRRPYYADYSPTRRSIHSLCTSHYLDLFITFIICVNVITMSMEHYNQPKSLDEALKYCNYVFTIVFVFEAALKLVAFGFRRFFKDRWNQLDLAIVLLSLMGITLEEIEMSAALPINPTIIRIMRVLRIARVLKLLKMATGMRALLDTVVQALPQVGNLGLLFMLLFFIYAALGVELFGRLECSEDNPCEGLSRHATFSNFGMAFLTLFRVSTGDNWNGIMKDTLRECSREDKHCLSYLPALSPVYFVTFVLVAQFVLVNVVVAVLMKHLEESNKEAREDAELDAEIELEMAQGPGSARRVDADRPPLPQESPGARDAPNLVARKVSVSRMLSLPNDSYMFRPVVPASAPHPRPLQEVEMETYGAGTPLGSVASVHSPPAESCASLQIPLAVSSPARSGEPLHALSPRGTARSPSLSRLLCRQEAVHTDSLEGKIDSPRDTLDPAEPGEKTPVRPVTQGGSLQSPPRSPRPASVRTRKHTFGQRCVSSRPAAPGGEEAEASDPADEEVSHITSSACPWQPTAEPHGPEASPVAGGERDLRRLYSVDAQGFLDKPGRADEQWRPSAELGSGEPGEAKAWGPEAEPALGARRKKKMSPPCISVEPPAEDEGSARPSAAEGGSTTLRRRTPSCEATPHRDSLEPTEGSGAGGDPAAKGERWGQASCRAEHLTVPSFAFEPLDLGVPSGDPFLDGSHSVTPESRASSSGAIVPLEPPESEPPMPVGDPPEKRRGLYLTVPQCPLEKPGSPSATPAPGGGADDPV
T1 sequence (O43497 whole entry): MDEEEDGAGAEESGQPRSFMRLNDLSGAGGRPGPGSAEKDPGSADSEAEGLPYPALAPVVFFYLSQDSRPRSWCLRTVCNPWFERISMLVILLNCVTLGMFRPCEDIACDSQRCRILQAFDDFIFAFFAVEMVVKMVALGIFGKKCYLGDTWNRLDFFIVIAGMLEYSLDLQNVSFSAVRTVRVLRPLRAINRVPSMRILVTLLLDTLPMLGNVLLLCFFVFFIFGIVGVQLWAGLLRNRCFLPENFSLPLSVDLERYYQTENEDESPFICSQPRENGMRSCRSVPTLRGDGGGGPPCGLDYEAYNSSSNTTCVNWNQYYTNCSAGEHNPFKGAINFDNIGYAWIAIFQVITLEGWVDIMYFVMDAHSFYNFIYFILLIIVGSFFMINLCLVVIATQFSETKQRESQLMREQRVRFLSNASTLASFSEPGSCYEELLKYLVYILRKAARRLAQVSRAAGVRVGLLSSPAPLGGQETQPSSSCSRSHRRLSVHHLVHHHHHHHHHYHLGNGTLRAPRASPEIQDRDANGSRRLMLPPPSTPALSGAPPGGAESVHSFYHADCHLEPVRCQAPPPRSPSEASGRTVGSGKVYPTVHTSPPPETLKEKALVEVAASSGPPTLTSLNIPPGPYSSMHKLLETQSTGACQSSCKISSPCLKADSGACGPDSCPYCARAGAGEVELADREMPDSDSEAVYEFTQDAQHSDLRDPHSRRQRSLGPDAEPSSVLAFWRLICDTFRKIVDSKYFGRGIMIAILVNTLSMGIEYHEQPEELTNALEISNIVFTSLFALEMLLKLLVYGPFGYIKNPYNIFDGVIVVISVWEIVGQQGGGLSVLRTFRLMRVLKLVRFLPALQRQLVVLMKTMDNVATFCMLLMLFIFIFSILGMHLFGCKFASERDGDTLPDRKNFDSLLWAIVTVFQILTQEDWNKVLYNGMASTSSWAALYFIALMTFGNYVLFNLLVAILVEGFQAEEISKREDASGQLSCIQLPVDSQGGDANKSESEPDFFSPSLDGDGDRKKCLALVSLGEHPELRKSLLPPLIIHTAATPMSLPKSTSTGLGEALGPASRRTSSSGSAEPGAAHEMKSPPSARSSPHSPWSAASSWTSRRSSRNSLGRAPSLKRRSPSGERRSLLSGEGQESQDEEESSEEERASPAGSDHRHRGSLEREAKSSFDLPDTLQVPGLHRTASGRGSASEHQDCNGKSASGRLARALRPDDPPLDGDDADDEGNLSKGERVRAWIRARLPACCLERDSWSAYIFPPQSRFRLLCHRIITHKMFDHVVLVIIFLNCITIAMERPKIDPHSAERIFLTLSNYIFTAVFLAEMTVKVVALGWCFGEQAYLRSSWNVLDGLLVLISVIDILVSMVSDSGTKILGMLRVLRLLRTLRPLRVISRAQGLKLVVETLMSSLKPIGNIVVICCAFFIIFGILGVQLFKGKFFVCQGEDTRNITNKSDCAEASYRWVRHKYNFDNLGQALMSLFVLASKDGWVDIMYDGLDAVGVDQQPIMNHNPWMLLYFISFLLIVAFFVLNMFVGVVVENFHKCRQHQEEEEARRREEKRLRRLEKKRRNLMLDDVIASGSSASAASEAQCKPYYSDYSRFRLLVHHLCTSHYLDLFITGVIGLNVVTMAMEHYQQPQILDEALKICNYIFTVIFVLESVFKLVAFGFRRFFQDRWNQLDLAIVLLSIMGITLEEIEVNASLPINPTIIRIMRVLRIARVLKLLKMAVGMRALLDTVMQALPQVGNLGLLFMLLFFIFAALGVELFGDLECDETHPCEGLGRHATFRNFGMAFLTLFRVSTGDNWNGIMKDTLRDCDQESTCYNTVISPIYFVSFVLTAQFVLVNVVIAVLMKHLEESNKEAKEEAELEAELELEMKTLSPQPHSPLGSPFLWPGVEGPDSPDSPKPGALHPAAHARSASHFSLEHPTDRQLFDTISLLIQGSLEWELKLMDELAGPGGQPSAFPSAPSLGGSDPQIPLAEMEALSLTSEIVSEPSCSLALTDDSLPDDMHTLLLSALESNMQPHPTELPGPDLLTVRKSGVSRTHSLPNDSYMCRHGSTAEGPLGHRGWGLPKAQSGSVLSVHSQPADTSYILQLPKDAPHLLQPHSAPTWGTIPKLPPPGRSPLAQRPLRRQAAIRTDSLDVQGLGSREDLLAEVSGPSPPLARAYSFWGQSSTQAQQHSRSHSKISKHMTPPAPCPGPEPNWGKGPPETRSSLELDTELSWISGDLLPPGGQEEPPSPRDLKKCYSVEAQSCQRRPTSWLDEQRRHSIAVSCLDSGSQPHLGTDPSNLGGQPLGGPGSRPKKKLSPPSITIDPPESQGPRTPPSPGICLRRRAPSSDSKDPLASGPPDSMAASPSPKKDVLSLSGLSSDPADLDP

O=C1CC(N2CCN(C(c3ccc(F)cc3)c3ccc(F)cc3)CC2)C(=O)N1c1ccc(Cl)cc1 (stereo not given)
inhibition [1]: 51.8%

CN(c1ccc(Br)cc1)S(=O)(=O)c1ccc2[nH]cc(C(=O)N3CCN(Cc4ccccc4)CC3)c(=O)c2c1
inhibition [1]: 86.5%

CCOC(=O)c1c(C)n(Cc2ccccc2)c2ccc(OCC(O)CN3CCN(Cc4ccccc4)CC3)cc12 (stereo not given)
inhibition [1]: 8.83%

FC(F)(F)c1cccc(N2CCN(CCNCc3cc(-c4ccccc4C(F)(F)F)no3)CC2)c1
IC50 [2]: 1.02 µM

O=C(NCCCn1ccnc1)c1ccc2c(=O)n(-c3ccccc3)c(=S)[nH]c2c1
inhibition [1]: 2.47%

O=C(NCCCN1CCCCCC1)c1ccc2c(=O)n(Cc3ccc(Cl)cc3)c(=S)[nH]c2c1
IC50 [2]: 1.41 µM | IC50 [3]: 5.8 µM | inhibition [4]: 85.4%

Cc1cccc(N2CCN(CC(=O)Nc3ccc(Cl)cc3C(=O)c3ccccc3Br)CC2C)c1 (stereo not given)
inhibition [1]: 9.23%

COc1cccc(NC2=C3C(=O)c4ccccc4C4ON=C(C(N5CCN(Cc6cc(Cl)ccc6OC)CC5)=C2)C34)c1 (stereo not given)
inhibition [1]: 16.1%

CC1CCN(CCCNC(=O)c2ccc(Cn3c(=S)[nH]c4ccc(Br)cc4c3=O)cc2)CC1
inhibition [1]: 62.6%

O=C(CN1CCN(C2c3ccccc3-c3ccccc32)CC1)Nc1cc(C(F)(F)F)ccc1Cl
Activity [1]: inactive

O=C(CCN1C(=O)c2ccccc2C1=O)N1CCN(C(c2ccccc2)c2ccccc2)CC1
inhibition [1]: 43.3%

CCN(CC)CCOC(=O)c1ccc(N/C=C2/C(=O)NC(=O)N(CCc3ccccc3)C2=O)cc1
Activity [1]: inactive

CCC1CCCCN1CCCNC(=O)c1ccc2c(=O)n(Cc3ccc(Cl)cc3)c(=S)[nH]c2c1 (stereo not given)
IC50 [3]: 2.1 µM | inhibition [1]: 98.3% | inhibition [4]: 88.3%

O=C(CN(c1cccc([N+](=O)[O-])c1)S(=O)(=O)c1ccccc1)N1CCN(Cc2ccccc2)CC1
inhibition [1]: 42.5%

CCN1CCN(CCCNC(=O)c2ccc3c(=O)n(Cc4ccc(Cl)cc4)c(=S)[nH]c3c2)CC1
IC50 [2]: 2.53 µM | IC50 [3]: 7.1 µM | inhibition [4]: 78.9%

COc1ccccc1-c1cc(CNCCN2CCN(c3cccc(C(F)(F)F)c3)CC2)on1
IC50 [2]: 2.04 µM

CC1CCN(CCNC(=O)c2ccc(-n3c(=S)[nH]c4ccccc4c3=O)cc2)CC1
Activity [1]: inactive

Cc1ccc(CSc2nc3cc(C(=O)NCCCN4CCOCC4)ccc3c(=O)n2-c2ccc(F)cc2)cc1
Activity [1]: inactive

Cc1ccc(C(=O)Oc2ccc(NC3=NS(=O)(=O)c4ccccc43)cc2CN2CCCCC2)cc1
inhibition [1]: 13.5%

O=C(NCCCN1CCCCC1)c1ccc2c(=O)n(Cc3ccc(Cl)cc3)c(=S)[nH]c2c1
IC50 [2]: 2.08 µM | IC50 [3]: 8.1 µM | inhibition [1]: 72.9% | inhibition [4]: 34.3%

Cc1ccc(N2CCN(CCNCc3cc(-c4ccccc4C(F)(F)F)no3)CC2)c(C)c1
IC50 [2]: 1.53 µM

CC1CC(C)CN(CCCNc2ccc(C(=O)Nc3ccc(C(F)(F)F)cc3)cc2[N+](=O)[O-])C1 (stereo not given)
inhibition [1]: 56%

O=C(CN1CCN(C(c2ccccc2)c2ccccc2)CC1)NCc1ccc2c(c1)OCO2
inhibition [1]: 12.5%

O=S(=O)(c1ccccc1)N(CC(O)CN(Cc1ccccc1)Cc1ccccc1)c1ccccc1 (stereo not given)
inhibition [1]: 15.2%

O=C1CC(N2CCN(C(c3ccccc3)c3ccc(Cl)cc3)CC2)C(=O)N1c1cccc(Cl)c1 (stereo not given)
inhibition [1]: 16.6%

CCN1CCN(c2cc(C)c3cc(NC(=O)/C=C/c4cccc(Cl)c4)ccc3n2)CC1
Activity [1]: inactive

O=[N+]([O-])c1ccccc1S(=O)(=O)N1CCN(Cc2ccccc2Cl)CC1
inhibition [1]: 7.57%

FC(F)(F)c1cccc(N2CCN(Cn3nc(-c4ccccc4)n(-c4ccccc4)c3=S)CC2)c1
inhibition [1]: 11.4%

O=C(O)c1ccc2c(=O)n(Cc3ccc(CNCCCN4CCN(c5cccc(Cl)c5)CC4)cc3)c(=S)[nH]c2c1
inhibition [1]: 11.4%

CCN(CC)CCNC(=O)C1c2ccccc2C(=O)N(Cc2ccc(F)cc2)C1c1ccc(OC)cc1 (stereo not given)
inhibition [1]: 52.2%

O=C(NC1CCN(Cc2ccccc2)CC1)c1ccc2c(=O)n(Cc3ccc(Cl)cc3)c(=S)[nH]c2c1
Activity [1]: inactive

O=C(NCCCN1CCCC1)c1ccc2c(=O)n(Cc3ccc(Cl)cc3)c(=S)[nH]c2c1
IC50 [2]: 1.16 µM | IC50 [3]: 17.2 µM | inhibition [1]: 84.1% | inhibition [4]: 85.4%

CCN(CC)CCNC(=O)c1cn(-c2ccc(Cl)cc2)c(=O)c2ccccc12
inhibition [1]: 13%

O=C1CC(N2CCN(C(c3ccc(F)cc3)c3ccc(F)cc3)CC2)C(=O)N1c1ccc(Br)cc1 (stereo not given)
inhibition [1]: 37.1%

CCN(CC)CCNC(=O)c1ccc(CNc2nc(=S)[nH]c3ccccc23)cc1
inhibition [1]: 9.54%

CCN(CC)CCNC(=O)c1ccc(NC(=O)c2cn(CC)c3nc(C)ccc3c2=O)cc1
inhibition [1]: 41.9%

CN(CCCNC(=O)c1ccc2c(=O)n(Cc3ccc(Cl)cc3)c(=S)[nH]c2c1)Cc1ccccc1
IC50 [2]: 4.69 µM | inhibition [4]: 37.5%

O=C1c2ccccc2C(=O)N1CC#CCN1CCN(C(c2ccccc2)c2ccccc2)CC1
Activity [1]: inactive

CN1CCN(C(=O)c2ccc3c(=O)n(Cc4ccc(Cl)cc4)c(=S)[nH]c3c2)CC1
IC50 [2]: 11.4 µM | inhibition [4]: 51.4%

O=C(CCC(=O)Nc1nc(-c2cc3cc(Cl)ccc3oc2=O)cs1)NCCCN1CCCC1
inhibition [1]: 43.9%

O=C(CSC1CN(C(c2ccccc2)c2ccccc2)C1)NNC(=O)c1ccc(Cl)cc1
inhibition [1]: 28.3%

CCN(CC)CCOC(=O)c1ccc(NC(=O)c2cc3ccccc3o2)cc1
inhibition [1]: 34.4%

O=C1CC(N2CCN(C(c3ccccc3)c3ccccc3)CC2)C(=O)N1c1ccc(Cl)c(C(F)(F)F)c1 (stereo not given)
inhibition [1]: 41.8%

CCOC(=O)c1cc2c(c(CSc3nc4ccccc4c(=O)n3CCCN3CCCCC3)c1)OCOC2
inhibition [1]: 35.3%

COc1ccccc1-c1cc(CNCCN2CCN(c3ccc(C)cc3C)CC2)on1
IC50 [2]: 2.02 µM

O=C(NCCCN1CCN(c2ccccc2F)CC1)c1ccc(CNc2nc(=S)[nH]c3ccccc23)cc1
inhibition [1]: inactive

O=C(NCCCN1CCOCC1)c1ccc2c(=O)n(Cc3ccccc3)c(=S)[nH]c2c1
inhibition [1]: 15.9%

CN(C)CCNC(=O)c1ccc2c(=O)n(Cc3ccc(Cl)cc3)c(=S)[nH]c2c1
IC50 [2]: 53.5 µM | inhibition [4]: 43.5%

COC(=O)c1ccc(S(=O)(=O)N2CCN(C(c3ccccc3)c3ccccc3)CC2)n1C
Activity [1]: inactive

CCOC(=O)c1c(NC(=O)c2ccc(S(=O)(=O)N(C)c3ccccc3)cc2)sc2c1CCN(CC)C2
inhibition [1]: 22%

CC1CCN(CCCNC(=O)c2ccc3c(=O)n(Cc4ccc(Cl)cc4)c(=S)[nH]c3c2)CC1
IC50 [2]: 1.1 µM | IC50 [3]: 6.4 µM | inhibition [4]: 89.2%

COC(=O)c1ccc2c(=O)n(Cc3ccc(C(=O)N4CCC(N5CCCCC5)CC4)cc3)c(=S)[nH]c2c1
inhibition [1]: 10.3%

Cc1ccc(N(CC(O)CN(Cc2ccccc2)Cc2ccccc2)S(=O)(=O)c2ccccc2[N+](=O)[O-])cc1 (stereo not given)
inhibition [1]: 34.7%

O=C(NCCCN1CCOCC1)c1ccc2c(=O)n(-c3cccc(C(F)(F)F)c3)c(=S)[nH]c2c1
inhibition [1]: 15.9%

OC(CN1CCN(C(c2ccccc2)c2ccccc2)CC1)Oc1cccc(C(F)(F)F)c1 (stereo not given)
inhibition [1]: 58.3%

O=C1c2ccccc2C(=O)N1CCCN1CCN(Cc2c(F)cccc2Cl)CC1
inhibition [1]: 8.1%

CCN1C(N2CCCCC2)=Nc2ccccc2C1CC(=O)NCc1ccc(NS(=O)(=O)c2ccc(C)cc2)cc1 (stereo not given)
IC50 [2]: 0.96 µM

CCCCN(C)CCNC(=O)c1ccc2c(=O)n(Cc3ccc(Cl)cc3)c(=S)[nH]c2c1
IC50 [2]: 11.4 µM | inhibition [4]: 34.3%

O=C(NCCCn1ccnc1)c1ccc2c(=O)n(-c3ccc(F)c(Cl)c3)c(=S)[nH]c2c1
Activity [1]: inactive

O=C(CCN1C(=O)c2ccccc2C1=O)N1CCN(Cc2ccc(Cl)cc2Cl)CC1
inhibition [1]: 12%

O=S(=O)(c1cccc2nonc12)N1CCN(C(c2ccccc2)c2ccccc2)CC1
inhibition [1]: 15.2%

CN(CCCNC(=O)c1ccc(-n2c(=S)[nH]c3ccc(Br)cc3c2=O)cc1)Cc1ccccc1
inhibition [1]: 25.7%
